What was measured:
EGFR WT = molecular target: T1, EGFR WT (Homo sapiens, UniProt P00533); assay: Enzymatic assay EGFR WT (method c); assay type: biochemical; details: [EGFR WT]=2 nM, [ATP]=1 mM, [Peptide 22]=1 μM
T1 construct: purchased Thermo Fisher, Carlsbad, CA ERBB1 PR7295B
Description: (§1) A 2× stock solution of HER2 WT (ERBB2 0108-0000-1; ProQinase, Freiburg, Germany) corresponding to method a, was prepared as described below. Alternatively, a 2× stock solution of HER2YVMA (custom purification; Viva biotech, Shanghai, China) corresponding to method b, was prepared as described below. For method c, a 2× stock of EGFR (ERBB1 PR7295B, Thermo Fisher, Carlsbad, CA) was prepared as described below. All 2× solutions were prepared in buffer containing 50 mM HEPES, pH 7.5, 10 mM MnCl2, MgCl2, 0.005% Tween 20, 1 mM TCEP. 25 ul of 2× enzyme solution was added to a Seahorse low volume 384-well polypropylene assay plate (201288-100, Seahorse Bioscience, Chicopee, MA) containing 1 μl of compound serially diluted in 50% DMSO. To initiate the reaction, 25 μl of solution containing 2× final concentration of ATP and ProfilerPro Peptide 22 (760366, Perkin Elmer Hopkinton, MA) was added to each well. The reactions were separated on an LC3000 (Caliper Life Sciences) or a LabChip EZReader (Perkin Elmer) in kinetic mode.
(§2) At the conclusion of each assay, the data were exported from the instrument as a .rda file (LC3000) and processed in proprietary software, EZReviewer, which determines the percent of substrate converted to product within a given cycle as (P/P+S)*100 by measuring the amplitude of substrate and product peaks. Cycle time varied with amount of compounds tested between 8 and 12 cycles. Initial velocity (0-3600 s) from each reaction was determined from the slope of a plot of percent conversion at each cycle versus time (seconds). Percent inhibition was determined by dividing the slope of each reaction by the uninhibited control using 100*(1-(x/uninhibited control)). IC50 estimates were obtained by plotting the concentration of inhibitor versus percent inhibition in GraphPad Prism (GraphPad Software, San Diego, CA) using log[inhibitor] versus Response (Variable Slope Model); Y=Min+((Max-Min)/(1+((IC50/x)^Hillslope)))
(§3) • a) [HER2 WT]=12.5 nM, [ATP]=25 μM, [Peptide 22]=1 μM (ATP KMapp˜25 μM) • b) [HER2YVMA]=5 nM, [ATP]=25 μM, [Peptide 22]=1 μM (ATP KMapp˜15 μM) • c) [EGFR WT]=2 nM, [ATP]=1 mM, [Peptide 22]=1 μM (ATP KMapp˜25 μM)

HER2 WT = molecular target: T2, HER2 WT (Homo sapiens, UniProt P04626); assay: Enzymatic assay HER2 WT (method a); assay type: biochemical; details: [HER2 WT]=12.5 nM, [ATP]=25 μM, [Peptide 22]=1 μM
T2 construct: purchased ProQinase, Freiburg, Germany ERBB2 0108-0000-1
Description: as §1, §2, §3

HER2YVMA = HER2YVMA (Homo sapiens, UniProt P04626, INS775YVMA); assay: Enzymatic assay HER2YVMA (method b); assay type: biochemical; set-up: purchased Viva biotech, Shanghai, China custom purification; details: [HER2YVMA]=5 nM, [ATP]=25 μM, [Peptide 22]=1 μM
Description: as §1, §2, §3

EGFR = EGFR (Homo sapiens, UniProt P00533); assay: EGFR signaling (pEGFR Tyr1068/total EGFR MSD) in A431 cells; assay type: cell-based; set-up: endogenous in cells; host or cells: A431, N87; details: for EC50: A431 cells, read-out: A431 pEGFR EC50; for Selectivity A431 EC50/BT474 EC50: ratio A431 pEGFR EC50 to BT474 pHER2 EC50
Description: (§4) In addition to the engineered cell lines, the following cell lines were used: BT474 (human breast carcinoma), N87 (human gastric carcinoma), NCI-H1781 (human lung adenocarcinoma), and A431 (human epidermoid carcinoma); all cell lines were obtained from the American Type Culture Collection (ATCC, Manassas, VA). NCI-H1781 were grown in complete RPMI 1640 (Life Technologies, Carlsbad, CA) supplemented with 15% fetal bovine serum (FBS, Life Technologies, Carlsbad, CA) and 1% Penicillin-Streptomycin (P/S, Life Technologies, Carlsbad, CA). N87 cells were grown in complete RPMI 1640 supplemented with 10% FBS and 1% P/S. BT474 and A431 cells were grown in DMEM (Life Technologies, Carlsbad, CA) supplemented with 10% FBS and 1% P/S. All cells were maintained and propagated in a humidified 5% CO2 incubator at 37° C.
A431 Cells were plated in 96-well tissue-culture treated plates in full media for 6 h, then starved with media containing 0.1% FBS for overnight. Media was replaced with low serum media (1% FBS) containing compound at 10, 3.3, 1.1, 0.37, 0.12, 0.041, 0.014, 0.005 μM or DMSO control (0.1%). Cells were incubated for 1.5 hr, then stimulated with 100 ng/mL human EGF (PeproTech, Rocky Hill, NJ) for 10 minutes. Cells were washed with cold PBS, and lysed for 30 min on ice in complete MSD lysis buffer (prepared as described in HER2 Signaling Method); lysates were stored at −70° C. until further analysis. EGFR signaling was evaluated using phospho (Tyr 1068)/total EGFR whole cell lysate kit (Meso-Scale Discovery, Gaithersburg, MD). The phospho EGFR signal was normalized to total EGFR for each sample; results are reported as % DMSO control. The normalized data was fitted using a sigmoidal curve analysis program (Graph Pad Prism version 6) with variable Hill slope to determine EC50 values. The results are provided in Table 4, under column titled “A431-pEGFR EC50”.

[1] = molecular target: T3, HER2 wildtype (WT) protein (Homo sapiens, UniProt P04626); assay: HER2 signaling (pHER2 Tyr1248/total HER2 MSD) in BT474 cells; assay type: cell-based; details: 1.5 hr compound, 1% FBS
T3 construct: BT474 and N87 cell lines which endogenously overexpress the HER2 wildtype (WT) protein; endogenous in cells; host or cells: BT474, N87
Description: as §4
HER2 signaling was assessed in BT474 and N87 cell lines which endogenously overexpress the HER2 wildtype (WT) protein, in NCI-H1781 cells which endogenously expresses a HER2 mutant protein containing a VC insertion in the kinase domain (HER2VC or G776delinsVC), and in engineered cell lines transduced to express the Her2 mutant protein containing the YVMA insertion (Hek293-HER2YVMA and BEAS2B-HER2YVMA).
BT474, N87, and NCI-H1781 were plated in 96-well tissue-culture treated plates (Corning Costar, Sigma-Aldrich) in full media and incubated overnight. Hek293-HER2YVMA and BEAS2B-HER2YVMA cells were plated in 96-well poly-D-lysine treated plates (BD Bioscience, San Jose, CA). For treatment with test compounds, the media was replaced with corresponding low serum media (1% FBS) containing test compound at 1.1, 0.37, 0.12, 0.041, 0.014, 0.005, 0.0014, 0.0005 μM or DMSO control (0.1%). Cells were incubated with compound for 1.5 hr at 37° C. After compound treatment, the media was removed and cells were lysed for 30 min on ice in complete MSD lysis buffer (prepared using MSD base lysis buffer (Meso-Scale Discovery) supplemented with cOmplete, EDTA-free Protease inhibitor cocktail (Roche), Phosphatase Inhibitor Cocktails 2 and 3 (Sigma-Aldrich), and 1 mM PMSF (Sigma-Aldrich)). Lysates were stored at −70° C. until further analysis.
HER2 signaling was evaluated using phospho (Tyr1248)/total ErbB2 whole cell lysate MSD plates (Meso-Scale Discovery, Gaithersburg, MD). The phospho HER2 signal was normalized to total HER2 for each sample; results are reported as % DMSO control. The normalized data was fitted using a sigmoidal curve analysis program (Graph Pad Prism version 6) with variable Hill slope to determine EC50 values.
The HER2 signaling results are provided in Table 4, under columns titled “BT474-pHER2 EC50”, “N87-pHER2 EC50”, and “NCI-H1781-pHER2 EC50”. Hek293-HER2YVMA ins fall under the heading “HEKYVMA-pHER2 EC50”, Ba/F3 HER2YVMA fall under the heading “Ba/F3 YVMA-pHER2 EC50” and BEAS2B-HER2YVMA fall under the heading “BEAS2B YVMA-pHER2 EC50”.

T3 sequence (P04626 23-1255): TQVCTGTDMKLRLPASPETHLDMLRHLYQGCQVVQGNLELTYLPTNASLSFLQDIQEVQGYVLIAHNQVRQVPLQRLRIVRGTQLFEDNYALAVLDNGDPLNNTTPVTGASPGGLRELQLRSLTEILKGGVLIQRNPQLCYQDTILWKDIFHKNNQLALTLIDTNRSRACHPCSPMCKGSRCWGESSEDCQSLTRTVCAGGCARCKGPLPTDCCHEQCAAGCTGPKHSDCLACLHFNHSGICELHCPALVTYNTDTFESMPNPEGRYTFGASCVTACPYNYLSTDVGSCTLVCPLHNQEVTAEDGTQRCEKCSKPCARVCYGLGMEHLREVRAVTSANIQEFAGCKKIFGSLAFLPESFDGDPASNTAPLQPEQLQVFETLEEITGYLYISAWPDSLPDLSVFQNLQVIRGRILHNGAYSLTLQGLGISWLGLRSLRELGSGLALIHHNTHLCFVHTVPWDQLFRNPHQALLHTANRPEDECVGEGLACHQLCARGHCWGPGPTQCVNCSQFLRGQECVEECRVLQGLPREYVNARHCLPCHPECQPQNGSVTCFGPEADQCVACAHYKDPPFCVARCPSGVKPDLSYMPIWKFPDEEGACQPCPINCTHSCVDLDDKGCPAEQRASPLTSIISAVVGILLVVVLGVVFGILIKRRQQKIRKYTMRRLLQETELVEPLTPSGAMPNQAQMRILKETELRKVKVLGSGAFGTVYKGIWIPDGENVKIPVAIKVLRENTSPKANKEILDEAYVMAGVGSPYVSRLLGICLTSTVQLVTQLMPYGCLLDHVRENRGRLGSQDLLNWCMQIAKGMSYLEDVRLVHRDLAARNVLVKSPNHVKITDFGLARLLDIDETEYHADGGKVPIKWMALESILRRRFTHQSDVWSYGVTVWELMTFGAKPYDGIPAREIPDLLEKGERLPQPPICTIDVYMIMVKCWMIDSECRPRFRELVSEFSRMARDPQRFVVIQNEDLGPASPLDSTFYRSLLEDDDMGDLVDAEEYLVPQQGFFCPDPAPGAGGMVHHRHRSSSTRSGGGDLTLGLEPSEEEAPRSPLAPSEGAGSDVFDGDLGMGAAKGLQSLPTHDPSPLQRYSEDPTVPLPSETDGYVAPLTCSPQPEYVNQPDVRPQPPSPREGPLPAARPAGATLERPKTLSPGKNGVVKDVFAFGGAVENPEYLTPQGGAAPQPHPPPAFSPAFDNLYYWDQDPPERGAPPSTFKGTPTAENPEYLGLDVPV
T2 sequence (P04626 23-1255): as above
Chain of EGFR (P00533 25-1210): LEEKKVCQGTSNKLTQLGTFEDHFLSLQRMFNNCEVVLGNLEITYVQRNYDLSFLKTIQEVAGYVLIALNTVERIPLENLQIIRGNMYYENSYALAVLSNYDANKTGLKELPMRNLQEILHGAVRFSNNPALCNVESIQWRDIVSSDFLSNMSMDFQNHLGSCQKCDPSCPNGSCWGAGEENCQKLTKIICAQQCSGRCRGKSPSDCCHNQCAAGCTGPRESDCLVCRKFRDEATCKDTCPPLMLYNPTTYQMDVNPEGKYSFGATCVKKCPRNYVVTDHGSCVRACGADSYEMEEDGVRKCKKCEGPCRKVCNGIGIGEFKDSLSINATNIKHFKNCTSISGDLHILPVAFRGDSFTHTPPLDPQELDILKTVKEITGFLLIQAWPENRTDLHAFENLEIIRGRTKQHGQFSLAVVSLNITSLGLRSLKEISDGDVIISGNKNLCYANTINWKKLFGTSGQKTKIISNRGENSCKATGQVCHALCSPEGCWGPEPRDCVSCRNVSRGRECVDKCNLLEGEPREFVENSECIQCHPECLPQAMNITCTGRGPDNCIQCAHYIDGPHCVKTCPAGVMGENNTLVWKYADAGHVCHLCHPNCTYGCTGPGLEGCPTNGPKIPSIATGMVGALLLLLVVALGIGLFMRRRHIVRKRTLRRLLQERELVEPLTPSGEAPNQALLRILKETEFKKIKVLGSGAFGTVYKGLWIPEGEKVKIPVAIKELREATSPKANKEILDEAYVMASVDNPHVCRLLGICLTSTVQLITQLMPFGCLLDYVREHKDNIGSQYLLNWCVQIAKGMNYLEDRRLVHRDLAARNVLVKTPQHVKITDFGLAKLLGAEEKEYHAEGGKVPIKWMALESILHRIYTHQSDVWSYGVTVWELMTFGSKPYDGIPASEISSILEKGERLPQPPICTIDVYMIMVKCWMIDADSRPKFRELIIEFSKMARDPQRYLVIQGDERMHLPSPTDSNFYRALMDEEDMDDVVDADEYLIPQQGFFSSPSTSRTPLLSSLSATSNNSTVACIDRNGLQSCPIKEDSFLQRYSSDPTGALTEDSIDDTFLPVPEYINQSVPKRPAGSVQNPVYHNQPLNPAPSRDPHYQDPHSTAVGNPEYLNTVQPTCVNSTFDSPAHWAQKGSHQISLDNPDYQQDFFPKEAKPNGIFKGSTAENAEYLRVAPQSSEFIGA
T1 sequence (P00533 25-1210): as above

Structure (SMILES) | IC50 (EGFR WT) [nM] | IC50 (HER2 WT) [nM] | IC50 (HER2YVMA) [nM] | EC50 (EGFR) [nM] | Selectivity A431 EC50/BT474 EC50 (EGFR) | EC50 [1] [nM]
C=CC(=O)N1CCc2c(sc3ncnc(Nc4ccc(Oc5ccc6ncnn6c5)c(C)c4)c23)C1 [Compound 2, 1-(4-((4-([1,2,4]triazolo[1,5-a]pyridin-6-yloxy)-3-methylphenyl)amino)-5,8-dihydropyrido[4′,3′:4,5]thieno[2,3-d]pyrimidin-7(6H)-yl)prop-2-en-1-one] | 1000 to 10000 | < 100 | < 100 |  |  | 
Cc1ccc(Oc2ccc(Nc3ncnc4sc5c(c34)CCN(C(=O)/C=C/CN3CC4CCC(C4)C3)C5)cc2C)cn1 [Compound 27] | 1000 to 10000 |  |  | < 100 | B (B: ≥ 20 and < 100) | 
Cc1ccc(Oc2ccc(Nc3ncnc4sc5c(c34)CCN(C(=O)/C=C/CN3CCOCC34CCC4)C5)cc2C)cn1 [Compound 31] | > 10000 | < 100 | 100 to 1000 | 100 to 1000 | D (D: ≥ 5 and < 10) | < 100
Cc1ccc(Oc2ccc(Nc3ncnc4sc5c(c34)CCN(C(=O)/C=C/CN3CCOC[C@@H]3C)C5)cc2C)cn1 [Compound 32] | > 10000 | < 100 | 100 to 1000 | 100 to 1000 | B (B: ≥ 20 and < 100) | < 100
Cc1ccc(Oc2ccc(Nc3ncnc4sc5c(c34)CCN(C(=O)/C=C/CN3CC4CC(C4)C3)C5)cc2C)cn1 [Compound 36] | 1000 to 10000 | < 100 | < 100 | < 100 | D (D: ≥ 5 and < 10) | < 100
Cc1cc(Nc2ncnc3sc4c(c23)CCN(C(=O)/C=C/CN2CCOC[C@@H]2C)C4)ccc1Oc1ccc2ncnn2c1 [Compound 79] | > 10000 | 100 to 1000 | 100 to 1000 |  |  | 
C[C@H]1COCCN1C/C=C/C(=O)N1CCc2c(sc3ncnc(Nc4ccc(Oc5ccc6ncnn6c5)c(Cl)c4)c23)C1 [Compound 90] | > 10000 | 100 to 1000 | 100 to 1000 |  |  | 
Cc1ccc(Oc2ccc(Nc3ncnc4sc5c(c34)CCN(C(=O)/C=C/CN3CCN4CCC3CC4)C5)cc2C)cn1 [Compound 116] | > 10000 | 1000 to 10000 | 1000 to 10000 |  |  | 

Other lines, results leading:

IC50 (EGFR WT) [nM] | IC50 (HER2 WT) [nM] | IC50 (HER2YVMA) [nM] | EC50 (EGFR) [nM] | Selectivity A431 EC50/BT474 EC50 (EGFR) | EC50 [1] [nM] | Structure (SMILES)
> 10000 | < 100 | 100 to 1000 | < 100 | C (C: ≥ 10 and < 20) | < 100 | Cc1ccc(Oc2ccc(Nc3ncnc4sc5c(c34)CCN(C(=O)/C=C/CN3CCOC(C)(C)C3)C5)cc2C)cn1 [Compound 28]
> 10000 | < 100 | < 100 | < 100 | C (C: ≥ 10 and < 20) | < 100 | Cc1ccc(Oc2ccc(Nc3ncnc4sc5c(c34)CCN(C(=O)/C=C/CN3CCOCC3(C)C)C5)cc2C)cn1 [Compound 29]
> 10000 | < 100 | 100 to 1000 | 100 to 1000 | A (A: ≥100) | < 100 | Cc1ccc(Oc2ccc(Nc3ncnc4sc5c(c34)CCN(C(=O)/C=C/CN3CCOC4(CCC4)C3)C5)cc2C)cn1 [Compound 30]
